The source of these data is patent publication US11459323B2, “Monocyclic β-lactam compound for treating bacterial infection” (MEDSHINE DISCOVERY INC., priority 2018, dated 2022).

Data set [1] has as its system Pseudomonas aeruginosa PA14. The data set is described as follows: Lungs of immunosuppressed mice infected with Pseudomonas aeruginosa (1), lung bacterial load. The data set is classed as in vivo. To be noted: 24 hours after infection, total dosage 400 mg/kg, day, ip at 2 h, 4 h, 6 h, 8 h. How it is done: Pseudomonas aeruginosa PA14. 64 mice were intraperitoneally injected with 150 mg/kg cyclophosphamide on the first day and the fourth day to give immunosuppressed mice. […] [table] The mice were injected with 50 μL of bacterial solution (2×10^3 CFU) through the airway. 2 hours after the infection, 4 mice in the model group was sacrificed by removing cervical vertebra. Two hours after infection, the drugs were administered by groups, and the mice were administered intraperitoneally once at 2 hours, 4 hours, 6 hours, and 8 hours, a total of 4 times. Mice of each group were sacrificed by removing cervical vertebra 24 hours after infection, lung and kidney tissues were taken aseptically and put into sterilized tissue homogenate tubes, weighed, and an appropriate amount of normal saline (NS) was added, the mixture was homogenized by a homogenizer for 1 min, the lung tissues of the model group were diluted 10^4, 10^5, 10^6 times, the lung tissues of each administration group were diluted 10, 100 times, the kidney tissues of the model group were diluted 10^2, […], 10^4 times, and the lung tissues of each administration group were diluted 10 times, the obtained mixtures were coated on TSA plates using spiral coater, then incubated at 37° C. overnight, and the CFU was counted with a colony counter. Graphpad Prism mapping software was used to make scatter plots of lung tissue CFU. SPSS19.0 software was used to count CFU and average body weight, and analysis of variance was used to analyze differences between groups.

Data set [2] relates to A. baumannii ATCC 17978. The data set is described as follows: MIC by micro-liquid dilution method (CLSI). The data set is classed as cell-based. The following applies: Acinetobacter baumannii; A. baumannii ATCC17978; read-out: MIC.
Data set [3] relates to Acinetobacter baumannii ATCC-BAA-1792. The data set is described as follows: MIC on Acinetobacter baumannii strains. The data set is classed as cell-based. The essentials:
(§1)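 Compounds were serially diluted in liquid medium, the strains were exposed to them according to CLSI procedures, and the minimum inhibitory concentration was recorded.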

In data set [4] the test system is Acinetobacter baumannii ATCC-BAA-1605. The data set is described as follows: MIC on Acinetobacter baumannii strains. The data set is classed as cell-based. The method in brief: as §1
The subject of data set [5] is Acinetobacter baumannii ATCC-BAA-1800. The data set is described as follows: MIC on Acinetobacter baumannii strains. The data set is classed as cell-based. The method in brief: as §1
Data set [6] concerns Acinetobacter baumannii ATCC 17978. As to the kind of experiment: MIC on Acinetobacter baumannii strains. The data set is classed as cell-based. To be noted: ATCC17978. The method in brief:
as §1

For data set [7], the system named is Acinetobacter baumannii ATCC-BAA-1793. As to the kind of experiment: MIC on Acinetobacter baumannii strains. The data set is classed as cell-based. The essentials: as §1
The subject of data set [8] is Acinetobacter baumannii ATCC 19606. The data set is described as follows: MIC on Acinetobacter baumannii strains. The data set is classed as cell-based. To be noted: ATCC19606. The method in brief:
as §1

Data set [9] deals with Acinetobacter baumannii ATCC-BAA-1789. As to the kind of experiment: MIC on Acinetobacter baumannii strains. The data set is classed as cell-based. To be noted: ATCCBAA1789. The method in brief:
as §1

Data set [10] relates to P. aeruginosa ATCC 35151. The data set is described as follows: MIC by micro-liquid dilution method (CLSI). The data set is classed as cell-based. The following applies: Pseudomonas aeruginosa, ATCC35151.
The nature of data set [11]: Body weight of mice in Pseudomonas aeruginosa lung infection experiment (1). The following applies: Aztreonam group (400 mg/kg.day, ip). The data set is classed as in vivo, CD-1 (ICR) mice. The method, then:
CD-1 (ICR) mice, provided by Beijing Charles River Laboratory Animal Technology Co., Ltd., weighing 23-27 g, 7 weeks old, female, a total of 64 mice.
The mice were weighed every day after the start of the experiment and the weight changes were recorded.
Graphpad Prism mapping software was used to make scatter plots of lung tissue CFU. SPSS19.0 software was used to count CFU and average body weight, and analysis of variance was used to analyze differences between groups.

The subject of data set [12] is K. pneumoniae ATCC BAA-1705 (KPC-2). As to the kind of experiment: MIC by micro-liquid dilution method (CLSI). The data set is classed as cell-based, Klebsiella pneumonia. To be noted: Klebsiella pneumoniae, ATCCBAA1705.
In data set [13] the test system is K. pneumoniae ATCC BAA-205 (TEM-1/SHV-1/SHV-12). The data set is described as follows: MIC by micro-liquid dilution method (CLSI). The following applies: Klebsiella pneumoniae, ATCCBAA205. The data set is classed as cell-based, Klebsiella pneumonia.
The test system of data set [14] is K. pneumoniae ATCC BAA-2470 (NDM-1). As to the kind of experiment: MIC by micro-liquid dilution method (CLSI). The data set is classed as cell-based, Klebsiella pneumonia. The following applies: Klebsiella pneumoniae, ATCCBAA2470.

Molecules are shown by their SMILES. In brackets after ≈: the same amount, converted by molar mass. Where two headings read alike, the source gives them in different places.

As a reminder, the MIC is the least concentration at which growth counts as inhibited. In data set [1], `C[C@H]1[C@H](NC(=O)/C(=N\OC(C)(C)C(=O)O)c2csc(N)n2)C(=O)N1S(=O)(=O)O` [Aztreonam, reference compound] gave an LOG10-of bacterial load of 1.62 ± 2.22. Moreover, the MIC was determined as 32 µg/mL (≈ 73.5 µM) in [2]; 64 µg/mL (≈ 147 µM) in data set [3] (ATCCBAA1792, ATCC-BAA-1792, read-out: MIC); 128 µg/mL (≈ 294 µM) in data set [4] (ATCCBAA1605); 32 µg/mL (≈ 73.5 µM) in data set [5] (ATCCBAA1800, ATCC-BAA-1800, read-out: MIC); 32 µg/mL (≈ 73.5 µM) in data set [6]; 64 µg/mL (≈ 147 µM) in [7] (ATCCBAA1793, ATCC-BAA-1793, read-out: MIC). Further, the MIC was 32 µg/mL (≈ 73.5 µM) in data set [8], 64 µg/mL (≈ 147 µM) in data set [9] and at most 0.125 µg/mL in data set [10]. For the same compound, the “Body weight on the fifth day” value in [11] was found to be 28.02 ± 1.08 g. For the same compound, the “Body weight on the first day” value in data set [11] came out at 27.16 ± 1.74 g. In addition, the “Body weight on the fourth day” value in [11] was 27.80 ± 2.37 g.

`C[C@@H](O)[C@H]1C(=O)N2C(C(=O)O)=C(S[C@@H]3CN[C@H](C(=O)N(C)C)C3)[C@H](C)[C@H]12` [Meropenem, reference compound]: the minimum inhibitory concentration (MIC) is 128 µg/mL (≈ 334 µM) in data set [12]; at most 0.125 µg/mL in data set [13]; above 128 µg/mL in data set [14]; 128 µg/mL (≈ 334 µM) in [3] (ATCCBAA1792); 64 µg/mL (≈ 167 µM) in data set [4] (ATCCBAA1605, ATCC-BAA-1605, read-out: MIC); above 128 µg/mL in [5] (ATCCBAA1800). Also, the MIC in [6] is 0.5 µg/mL (≈ 1.3 µM); in data set [7] (ATCCBAA1793), above 128 µg/mL; in data set [8] it was 2 µg/mL (≈ 5.22 µM); in [9], 64 µg/mL (≈ 167 µM); in data set [10], at most 0.125 µg/mL.
